Reference: patent US9789102B2, “H3 receptor antagonist for use in the treatment of alzheimer's disease” (SANOFI, priority 2012, dated 2017)

How the values were obtained:
[1] = tested on: protein tau phosphorylation at AD-2 epitope; experiment: Western blot of tau phosphorylation at AD-2 epitope after single administration (Example 1); format: in vivo; settings: THY-Tau22 mice
Experimental: (§1) For immunoblot analysis, frozen mouse tissues (either hippocampus or cortex) were homogenized using a Precellys 24 tissue homogenizer in 350 μl RIPA buffer from Cell Signaling (20 mM Tris-HCl (pH 7.5), 150 mM NaCl, 1 mM Na2 EDTA, 1 mM EGTA, 1% NP-40, 1% sodium deoxycholate, 2.5 mM sodium pyrophosphate, 1 mM beta-glycerophosphate, 1 mM Na3VO4, 1 μg/ml leupeptin) to which proteases inhibitors (Sigma cocktail 1% v/v) and phosphatases inhibitors (okadaic acid 1 μM, sodium fluoride 100 mM) were added. After centrifugation, 16000×g 4° C. for 10 minutes, protein content in supernatants was determined with BioRad DC Protein Assay kit, using BSA as a standard. […] Tau protein was detected using the following mouse antibody: AD-2 1/20.000^e (Biorad, 56484) which recognizes tau protein phosphorylated on Ser396 and Ser404. […]
(§2) Following incubation with primary antibodies, blots were rinsed in TBS Tween 0.1% and incubated for 1 hour at room temperature in an anti-mouse IgG horseradish peroxidase (HRP)-linked secondary antibody 1/10,000^e (GE healthcare, NA9310) diluted in 5% non-fat dry milk in TBS Tween 0.1%. […] Quantification of immunoreactive signal was performed using Multigauge V3.0 software (FUJIFILM). […]

[2] = tested on: tau phosphorylation on AD2 epitope (pSer396-pSer404); experiment: Western blot of tau phosphorylation on AD-2 epitope after six months in food (Example 3); format: in vivo, THY-Tau22 mice; settings: 0.0034% in food
Excerpt: (§3) 2-(Cyclohexylmethyl)-N-{2-[(2S)-1-methylpyrrolidin-2-yl]ethyl}-1,2,3,4-tetrahydroisoquinoline-7-sulfonamide difumarate monohydrate was administrated as a supplement in food at doses of 0.00034%, 0.0034% and 0.034% for six months in THY-Tau22 and wild type mice as follows: • Tg Veh (n=17) • Tg Active Ingredient—0.034% (n=17) • Tg Active Ingredient—0.0034% (n=17) • Tg Active Ingredient—0.00034% (n=17) • WT Veh (n=17) • WT Active Ingredient—0.034% (n=17) • WT Active Ingredient—0.0034% (n=17) • WT Active Ingredient—0.00034% (n=17) • WT groups treated with Active Ingredient are not used in the biochemical and histological studies.
as §1, with “standard. Equal amounts of protein (5 μg) were loaded on 15-well 4-12% Bis-Tris gels (NuPAGE, Invitrogen) and electrophoresis was performed at 200V for 50 minutes in MOPS buffer according to the manufacturer's instructions.” for “standard.”
as §2

[3] = tested on: tau phosphorylation at the AT-8 epitope; experiment: Western blot analysis of tau phosphorylation at AT-8 epitope after six months in food; format: in vivo, THY-Tau22 mice; settings: 0.0034% in food, trend only, ns
[4] = Comparison of exposures in mice (6 months in food) with those expected at steady state in AD patients; format: in vivo
MIP-1α gene expression = experiment: mRNA expression of MIP-1α in hippocampus by QPCR after six months in food; format: in vivo, THY-Tau22 mice
Excerpt: as §3
1. […] To assess the quality and concentration of the total RNA, 1 μl was analyzed on an RNA LabChip (Agilent) using a 2100 Bioanalyser, (Agilent Technologies). […]
2 μg of total RNA from each mouse was reverse transcribed with oligo (dT)16 and random primers using a High-Capacity cDNA Archive Kit (Applied Biosystems), following the manufacturer recommendations. […] For real time PCR, the housekeeping gene R.L37A, was amplified using a quantitect primer assay from Qiagen (QT00252266) and MIP1 alpha was amplified using the following primers (5′-[…]-3′) SEQ ID NO: 1; (5′-[…]-3′) SEQ ID NO: 2. […]

CN1CCC[C@H]1CCNS(=O)(=O)c1ccc2c(c1)CN(CC1CCCCC1)CC2 [2-(cyclohexylmethyl)-N-{2-[(2S)-1-methylpyrrolidin-2-yl]ethyl}-1,2,3,4-tetrahydroisoquinoline-7-sulfonamide difumarate monohydrate]
effect on protein tau phosphorylation at AD-2 epitope in the cortex ([1]; 3 mg/kg per os): did not elicit any effect
effect on protein tau phosphorylation at AD-2 epitope in the cortex ([1]; 10 mg/kg per os): did not elicit any effect
protein tau phosphorylation on AD-2 epitope in hippocampus, vs vehicle ([2]; THY-Tau22 mice): statistical significant decrease
inhibition of tau phosphorylation at the AD-2 epitope, cortex ([2]; Western blot, non-significant, p=0.1807): −57%
inhibition of tau phosphorylation at the AD-2 epitope, hippocampus ([2]; Western blot, p=0.0229 vs vehicle): −37%
inhibition of tau phosphorylation at the AT-8 epitope, hippocampus [3]: −22%
corresponding human dose (safe for patients) by comparison of exposures ([4]; 0.00034% in food of mice): about 0.25 mg
corresponding human dose (safe for patients) by comparison of exposures ([4]; 0.0034% in food of mice): about 2.5 mg
MIP-1α gene expression in hippocampus, vs vehicle (MIP-1α gene expression; 0.00034% in food): statistical significant decrease
MIP-1α gene expression in hippocampus, vs vehicle (MIP-1α gene expression; 0.0034% in food): statistical significant decrease
